Results taken from patent US7335756B2, “Retinoic acid metabolizing cytochrome P450” (Cytochroma Inc., priority 2001, dated 2008).
Several values for one entry are separate records, joined by “and”; a condition that tells them apart may be missing. Equal entries are not always repeated. Where two headings read alike, the source gives them in different places.

Assays:
P450RAI-3 [1] = biological target: T1, P450RAI-3 (Homo sapiens, UniProt Q6V0L0, F447L); test: LC/MS analysis of ATRA and 9-cis-RA metabolism in Hela-P450RAI-3 stable cells; settings: 5 hours
T1 sequence (Q6V0L0 1-522 F447L): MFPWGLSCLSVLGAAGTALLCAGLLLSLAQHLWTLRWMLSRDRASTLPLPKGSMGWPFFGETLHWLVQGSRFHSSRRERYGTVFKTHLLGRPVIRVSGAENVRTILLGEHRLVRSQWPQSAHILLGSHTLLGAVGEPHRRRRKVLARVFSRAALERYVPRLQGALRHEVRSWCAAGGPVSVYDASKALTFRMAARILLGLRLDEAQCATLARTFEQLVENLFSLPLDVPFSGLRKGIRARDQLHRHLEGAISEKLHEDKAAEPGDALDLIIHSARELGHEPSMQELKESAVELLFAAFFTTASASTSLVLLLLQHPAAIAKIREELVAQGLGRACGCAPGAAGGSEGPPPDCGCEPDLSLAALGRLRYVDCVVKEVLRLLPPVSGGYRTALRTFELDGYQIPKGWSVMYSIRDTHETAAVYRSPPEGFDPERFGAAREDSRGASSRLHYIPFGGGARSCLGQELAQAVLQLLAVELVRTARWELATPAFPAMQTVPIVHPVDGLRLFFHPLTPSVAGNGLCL
Method: After 5 hours incubation at 37° C., cells were acidified with acetic acid and total retinoids were extracted using Ethyl acetate method. The organic upper layer was pooled and evaporated in speed-vacuum, and dried residues were dissolved in HPLC mobile solvent and analyzed in LC/MS.
The HPLC system consisted of a waters alliance 2690 separations module. Chromatography was obtained on an Eclipse X DB-C18 reverse phase column (5 um, 2.1×150 mm from HP). A gradient elution program was used using acetonitrile, water and 10% acetic acid. The flow was held at 0.2 ml/min.
Mass Spectrometry condition used for this work consisted of a Micro-mass Quatro Ultima Tandem triple quadruple mass spectrometer equipped with electrospray interface (ESI) and operated in a negative mode.

CYP26-A = biological target: T2, CYP26-A (Homo sapiens, UniProt O43174, E104D/H105D/L421A/M420S); test: 9-cis-RA binding assay, CYP26-A; settings: substrate 0.05 nM to 1000 nM, linear, Kd not determinable
T2 sequence (O43174 1-497 E104D/H105D/M420S/L421A): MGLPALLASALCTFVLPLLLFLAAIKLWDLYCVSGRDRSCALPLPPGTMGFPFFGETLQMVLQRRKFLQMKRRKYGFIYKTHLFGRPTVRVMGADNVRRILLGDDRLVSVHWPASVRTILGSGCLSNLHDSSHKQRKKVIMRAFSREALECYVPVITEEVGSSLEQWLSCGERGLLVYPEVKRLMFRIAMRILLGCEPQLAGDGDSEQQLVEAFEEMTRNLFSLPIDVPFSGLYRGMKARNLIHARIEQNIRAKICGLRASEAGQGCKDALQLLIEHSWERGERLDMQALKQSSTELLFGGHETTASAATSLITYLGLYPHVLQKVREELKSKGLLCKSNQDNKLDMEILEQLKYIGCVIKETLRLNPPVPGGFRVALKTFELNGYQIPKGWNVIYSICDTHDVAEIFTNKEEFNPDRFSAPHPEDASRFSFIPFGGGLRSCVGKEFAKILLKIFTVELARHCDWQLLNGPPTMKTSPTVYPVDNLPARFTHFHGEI

CYP26-B [2] = biological target: T3, CYP26-B (Homo sapiens, UniProt Q9NR63); test: ATRA and 9-cis-RA binding assay, CYP26-B microsomes; design: made in house; host or cells: HeLa cells stably expressing CYP26-B, microsomal fraction; settings: substrate 0.05 nM to 1000 nM, linear, Kd not determinable
T3 sequence (Q9NR63 1-512): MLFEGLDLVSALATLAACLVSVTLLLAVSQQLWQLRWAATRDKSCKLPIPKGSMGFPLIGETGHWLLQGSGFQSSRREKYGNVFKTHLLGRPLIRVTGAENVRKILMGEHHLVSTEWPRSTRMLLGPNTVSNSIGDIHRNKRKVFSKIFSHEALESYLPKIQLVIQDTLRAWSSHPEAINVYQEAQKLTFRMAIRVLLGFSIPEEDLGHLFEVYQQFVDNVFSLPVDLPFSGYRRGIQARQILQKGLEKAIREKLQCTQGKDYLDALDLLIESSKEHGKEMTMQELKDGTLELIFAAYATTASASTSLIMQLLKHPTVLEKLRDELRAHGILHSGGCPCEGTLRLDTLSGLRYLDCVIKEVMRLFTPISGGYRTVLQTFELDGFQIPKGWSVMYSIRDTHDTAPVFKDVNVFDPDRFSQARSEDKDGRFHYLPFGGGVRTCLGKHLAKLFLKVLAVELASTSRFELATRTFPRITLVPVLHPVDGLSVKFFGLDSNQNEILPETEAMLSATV

P450RAI-3 [3] = biological target: T1, P450RAI-3; test: ATRA and 9-cis-RA binding assay, Sf9-Bac-P450RAI-3 insect microsomes; settings: for Kd: Table 4 prints no unit
CYP26-B [4] = biological target: T3, CYP26-B; test: [3H]-RA-metabolism inhibition in Sf9-Bac-CYP26-B insect microsomes; format: biochemical; settings: at much higher concentrations
Method: (§1) RA-metabolism activity was assessed using RA-metabolism microsomes-based assay and Bligh Dyer extraction as follows: Using an automatic repeating-pipette, gently thawed and homogenized microsomes were plated in a 48-well plate in final volume of 150 μl of storage buffer containing 0.5 mg/ml BSA. At indicated concentration 2 μl of compound solution was added to the assay and 2 μl of DMSO was added to MS control (quadruplet) and No-MS control. 50 μl of [^3H]-RA solution (30,000 cpm, 2 nM final concentration) was added. […] After 1-hour incubation the reaction was stopped by adding 5 μl of 10% acetic acid. Organic and aqueous soluble radio-labelled metabolites were extracted using the Bligh-Dyer procedure. Saturated activity obtained in presence of NADPH at 5 μg of microsomes, FIG. 14.

P450RAI-3 [5] = biological target: T1, P450RAI-3; test: [3H]-RA-metabolism inhibition, transient Cos-P450RAI-3 cell-based assay; design: expressed in transfected cells; host or cells: COS-1 (transient, pcDNA-P450RAI-3, Fugene); settings: at lower concentrations
Method: (§2) The purpose of these experiments is to determine the specific substrates for P450RAI-3. […] The RA metabolism reaction was started by the addition of 50 ul of [^3H]-RA solution (20000 cpm, 2 nM final concentration). Cells were incubated for 3 hours in a humidified CO2 incubator at 37 degrees Celsius. The reaction was stopped by the addition of 5 ul of 10% acetic acid. Organic and aqueous soluble radio-labelled metabolites were extracted using the Bligh-Dyer procedure.

P450RAI-3 [6] = biological target: T1, P450RAI-3; test: ATRA / 9-cis-RA metabolism in pcDNA-P450RAI-3 transfected Cos-1 cells (Bligh-Dyer, HPLC); format: cell-based; design: expressed in transfected cells; host or cells: COS-1 (transient, pcDNA-P450RAI-3, Fugene); settings: 2 nM radio-labeled substrate, 3 hours
Method: Mammalian Cos-1 cells were transfected with either pcDNA-P450RAI-3 or pcDNA-control vector using Fugene™ (Roche diagnostic) according to the manufacturers directions. After 48 hours post-tranfection, cells were washed with PBS and assessed for ATRA-metabolism activity as described Briefly, transfected cells were incubated with radio-labeled ^3[H]-ATRA (18000 cpm, 2 nM) for 3 hours. Organic and Water-soluble metabolites were extracted using Bligh-Dyer procedure and radioactivity counted (FIG. 10).
HPLC analysis of the organic metabolites: the Bligh-Dyer organic button-layer was dried out and residues were suspended in HPLC solvent and then analyzed by HPLC as described in [White et al, PNAS, vol 97, pg 6403-6408], FIG. 11.
Mammalian Cos-1 cells were transfected with either pcDNA-P450RAI-3 or pcDNA-control vector according to the manufacturers directions using Fugene (Roche). After 48 hours post-tranfection, cells were washed with PBS and assessed for 9-cis-RA-metabolism activity as described using Bligh-Dyer procedure. Briefly, transfected cells were incubated with radio-labeled ^3[H]-9-cis-RA (38000 cpm, 2 nM) for 3 hours. Organic and Water-soluble metabolites were extracted using Bligh-Dyer procedure and radioactivity counted, FIG. 19.

CYP26-B [7] = biological target: T3, CYP26-B; test: [3H]-RA-metabolism inhibition in mammalian microsomes from stable Hela-CYP26-B cells; format: biochemical; design: made in house; host or cells: HeLa cells stably expressing CYP26-B, microsomal fraction
Method: as §1
(§3) Microsomes prepared from either stable Hela-CYP26-B or transient P450RAI-3-transfected Cos cells were used.

CYP26-B [8] = biological target: T3, CYP26-B; test: [3H]-RA-metabolism inhibition, transient Cos-CYP26-B cell-based assay; settings: at lower concentrations
P450RAI-3 [9] = biological target: T1, P450RAI-3; test: [3H]-RA-metabolism inhibition in Sf9-Bac-P450RAI-3 insect microsomes; format: biochemical; settings: 2 nM [3H]-RA, NADPH, 1 hour, read-out: ID50 (nM) Sf9-P450RAI-3
Method: Microsomes from P450RAI-3 and CYP26B infected Sf-9 cells were made as follows: exponentially growing cells were harvested, washed with ice-cold PBS, counted then homogenized and sonicated in lysis buffer containing protease inhibitors cocktail (10^8 cells par 5 ml lyses buffer). Since P450RAI-3 is a microsomal cytochrome, it preferably uses NADPH cytochromic P450 reductase and a flavoprotein for activity. The microsomes were isolated by differential centrifugations (10 min at 800×g, than 10 min at 10,000×g and finally the postmitichondirial supernatant was centrifuged at 100,000×g for 60 min using ultracentrifuge (Beckman). The microsomal pellet was isolated and homogenized gently in the storage buffer containing protease inhibitors cocktail. Protein concentration in the microsomal preparation was determined using a […] reaction assay kit with BSA as standards (Pierce). The absorbance at 562 nm of standards (BSA at 1, 0.5, 0.25, 0.125, and 0.0625 mg/ml) and 3 dilutions of microsomes samples (⅕, 1/10 and 1/20) was determined using an automatic microplate reader (μQuant, BioTek instruments Inc.). The protein concentration directly calculated by the software (KCJunior). […] Microsomes were assessed for P450 content by carbon monoxide assay and total P450 content was determined at 3 nmol/ml. […]

P450RAI-3 [10] = biological target: T1, P450RAI-3; test: [3H]-RA-metabolism inhibition in mammalian microsomes from transient P450RAI-3-transfected Cos cells; format: biochemical; design: expressed in transfected cells; host or cells: COS-1 (transient, pcDNA-P450RAI-3, Fugene)
Method: RA-metabolism activity was assessed using RA-metabolism microsomes-based assay and Bligh Dyer extraction as follows: Using an automatic repeating-pipette, gently thawed and homogenized microsomes were plated in a 48-well plate in final volume of 150 μl of storage buffer containing 0.5 mg/ml BSA. At indicated concentration 2 μl of compound solution was added to the assay and 2 μl of DMSO was added to MS control (quadruplet) and No-MS control. 50 μl of [^3H]-RA solution (30,000 cpm, 2 nM final concentration) was added. The microsomes assay with the compounds and the [^3H]-ATRA were incubated first for 10 min at 37° C., and then the reaction started by adding 20 μl of NADPH solution (or 1 mM final). After 1-hour incubation the reaction was stopped by adding 5 μl of 10% acetic acid. Organic and aqueous soluble radio-labelled metabolites were extracted using the Bligh-Dyer procedure. Saturated activity obtained in presence of NADPH at 5 μg of microsomes, FIG. 14.
as §3

P450RAI-3 [11] = biological target: T1, P450RAI-3; test: [3H]-RA-metabolism inhibition (substrate competition) in P450RAI-3 stable transfected Hela cells; format: cell-based; design: expressed in transfected cells; settings: 2 nM [3H]-RA
Method: as §2

Structure (SMILES): CC1=C(/C=C/C(C)=C\C=C\C(C)=C\C(=O)O)C(C)(C)CCC1 [9-cis-RA, 9-cis-retnoic acid]
- metabolites formed by P450RAI-3 (P450RAI-3 [1]): hydroxy and oxo-metabolites
- binding to CYP26-A (CYP26-A): weak binding
- binding to CYP26-B (CYP26-B [2]): weak binding
- Kd (P450RAI-3 [3]; read-out: Kd, substrate binding to P450RAI-3, insect microsomes, nM): 69 nM
- binding to P450RAI-3 microsomes (P450RAI-3 [3]; substrate 0.05 nM to 1000 nM): Very good binding
- competition for CYP26-B (CYP26-B [4]): very weak 9-cis-RA competition
- competition / inhibition of P450RAI-3 (P450RAI-3 [5]): competed only for P450RAI-3
- metabolism by P450RAI-3 (P450RAI-3 [6]): converted 9-cis-RA to the hydoxy and oxo-metabolites and to more polar water-soluble metabolites

Structure (SMILES): CC1=C(/C=C/C(C)=C/C=C/C(C)=C\C(=O)O)C(C)(C)CCC1 [13-cis-RA]
- competition for CYP26B (CYP26-B [7]): did not compete at lower concentrations
- competition / inhibition of P450RAI-3 (P450RAI-3 [5]): not a substrate
- competition / inhibition of CYP26-B (CYP26-B [8]): not a substrate

Structure (SMILES): CC(=O)N1CCN(c2ccc(OCC3COC(Cn4ccnc4)(c4ccc(Cl)cc4Cl)O3)cc2)CC1 (stereo not drawn) [Ketoconazole, ketoconazole]
- IC50 (P450RAI-3 [9]): > 10000 nM
- Kd (P450RAI-3 [3]; Kd, competition of ATRA binding to P450RAI-3, ketoconazole up to 100 μM, μM): 70500 nM and 75000 nM
- inhibition at 10 µM (P450RAI-3 [3]; read-out: inhibition of ATRA binding to P450RAI-3): 15%
- IC50 (P450RAI-3 [10]; read-out: ID50 (nM) P450RAI-3): 72000 nM
- IC50 (P450RAI-3 [10]; read-out: ID50 P450RAI-3): 70000 nM
- competition / inhibition of P450RAI-3 (P450RAI-3 [5]): weak inhibitor
- IC50 (P450RAI-3 [11]; read-out: ID50, competition for P450RAI-3 [3H]-RA metabolism): 70 µM
- competition / inhibition of CYP26-B (CYP26-B [8]): inhibited

Structure (SMILES): CC1=C(/C=C/C(C)=C/C=C/C(C)=C/C=O)C(C)(C)CCC1 [Retinal]
- substrate for CYP26-C (P450RAI-3 [11]): not substrates

Structure (SMILES): CC1=C(/C=C/C(C)=C/C=C/C(C)=C/CO)C(C)(C)CCC1 [Retinol]
- substrate for CYP26-C (P450RAI-3 [11]): not substrates
